Key:
[1] = In vitro rat microsomal stability assay; type: in vitro ADME, rat (Sprague-Dawley); details: for RAT MICROSOMAL STABILITY (% REMAINING AFTER 30 MINUTES): Sprague-Dawley, 0.5 h, 0.5 μM, pH 7.4
Method in brief: (§1)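 Liver microsomes: Sprague-Dawley rat for rat assay, human for human assay; 37 °C; NADPH cofactor, also spiked into time-zero plates.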

[2] = In vitro human microsomal stability assay; type: in vitro ADME; details: for HUMAN MICROSOMAL STABILITY (% REMAINING AFTER 30 MINUTES): 0.5 h, 0.5 μM, pH 7.4
Method in brief: as §1

[3] = target: T1, human TRPV3 (Homo sapiens, UniProt Q8NET8); experiment: In vitro antagonism of recombinant human TRPV3 activation (FLIPR Tetra calcium assay, 2-APB as agonist); type: cell-based; details: HEK293 cells stably expressing human TRPV3; 2-APB 80 μM; range class; read-out: IC50 (reported range)
T1 construct: expressed in transfected cells
T1 sequence (Q8NET8 1-790): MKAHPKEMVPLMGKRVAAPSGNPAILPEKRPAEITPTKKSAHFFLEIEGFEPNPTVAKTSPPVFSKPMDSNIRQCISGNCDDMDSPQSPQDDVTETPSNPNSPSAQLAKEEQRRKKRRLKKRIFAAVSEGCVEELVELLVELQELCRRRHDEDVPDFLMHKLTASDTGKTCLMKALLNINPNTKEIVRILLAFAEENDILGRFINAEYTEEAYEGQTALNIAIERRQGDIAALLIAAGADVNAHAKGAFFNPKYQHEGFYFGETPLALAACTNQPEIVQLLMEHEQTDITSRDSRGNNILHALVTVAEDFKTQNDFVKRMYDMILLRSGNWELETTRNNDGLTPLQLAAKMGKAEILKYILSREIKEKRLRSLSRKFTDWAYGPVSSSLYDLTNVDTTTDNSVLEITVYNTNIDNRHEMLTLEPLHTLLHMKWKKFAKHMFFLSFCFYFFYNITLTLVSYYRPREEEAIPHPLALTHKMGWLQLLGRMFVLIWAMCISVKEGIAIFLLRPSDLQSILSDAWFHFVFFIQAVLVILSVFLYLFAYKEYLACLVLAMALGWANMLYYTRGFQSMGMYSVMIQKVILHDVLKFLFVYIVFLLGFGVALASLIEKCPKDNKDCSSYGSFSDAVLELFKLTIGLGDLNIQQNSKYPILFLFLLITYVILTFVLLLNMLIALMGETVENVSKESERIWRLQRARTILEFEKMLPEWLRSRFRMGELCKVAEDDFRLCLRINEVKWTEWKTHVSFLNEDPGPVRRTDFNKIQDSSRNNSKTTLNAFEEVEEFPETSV
Method in brief: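 Readout is FLIPR fluorescence, max minus min as percent of uninhibited 2-APB response, giving IC50 (usually mean of ≥2 runs). Stable human TRPV3 HEK293 cells, Calcium-4 dye-loaded, got test compound then, three minutes later, 80 μM 2-APB (EC80); run length 10 min.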

[4] = 0.5 μM substrate, 0.25 mg/mL microsomal protein, pH 7.4, 37° C., NADPH, 30 minutes

Row | Structure (SMILES) | RAT […] (% REMAINING AFTER 30 MINUTES) [1, 4] [%] | HUMAN […] (% REMAINING AFTER 30 MINUTES) [2, 4] [%] | IC50 [3] [µM] | RAT MICROSOMAL STABILITY (% REMAINING AFTER 30 MINUTES) [1] [%] | HUMAN MICROSOMAL STABILITY (% REMAINING AFTER 30 MINUTES) [2] [%]
1 | O[C@H](c1ccccn1)[C@]1(c2cccc(C(F)(F)F)c2)C[C@@H](O)C1 (relative stereo) [Example 264, trans-3-[(S)-hydroxy(pyridin-2-yl)methyl]-3-[3-(trifluoromethyl)phenyl]-cyclobutanol] | 59 | 56 | 0.05 to 0.5 | – | –
2 | OC(c1ccccn1)C1(c2ccc(C(F)(F)F)cc2)CC2(C1)OCCO2 (stereo not drawn) [Example 161, pyridin-2-yl{2-[4-(trifluoromethyl)phenyl]-5,8-dioxaspiro[3.4]oct-2-yl}-methanol] | – | – | 1.1 to 5 | <0.01 | 61
3 | OC1CC(c2ccc(C(F)(F)F)cc2)([C@H](O)c2ccccn2)C1 (stereo partly drawn) [Example 166, 3-[(S)-hydroxy(pyridin-2-yl)methyl]-3-[4-(trifluoromethyl)phenyl]-cyclobutanol] | – | – | 5.1 to 20 | >85 | >85
4 | O[C@H](c1ccccn1)C1(c2ccc(OC(F)(F)F)cc2)CC(F)(F)C1 [Example 128, (S)-{3,3-difluoro-1-[4-(trifluoromethoxy)phenyl]cyclobutyl}(pyridin-2-yl)-methanol] | – | – | 0.05 to 0.5 | 67 | 59
5 | O[C@@H](c1ccccn1)C1(c2ccc(OC(F)(F)F)cc2)CC(F)(F)C1 [Example 159, (R)-{3,3-difluoro-1-[4-(trifluoromethoxy)phenyl]cyclobutyl}(pyridin-2-yl)methanol] | – | – | 1.1 to 5 | 65 | 45
6 | OC(c1ccccn1)C1(c2ccc(C(F)(F)F)nc2)CCC1 (stereo not drawn) [Example 85, pyridin-2-yl{1-[6-(trifluoromethyl)pyridin-3-yl]cyclobutyl}methanol] | – | – | 5.1 to 20 | 76 | 82
7 | OC(c1ccccn1)C1(c2nc3ccc(Cl)cc3o2)CCC1 (stereo not drawn) [Example 301, [1-(6-chloro-1,3-benzoxazol-2-yl)cyclobutyl](pyridin-2-yl)methanol] | – | – | 5.1 to 20 | 22 | 57
8 | OC(c1ccccn1)C1(c2cc(C(F)(F)F)cc(C(F)(F)F)c2)CCC1 (stereo not drawn) [Example 13, {1-[3,5-bis(trifluoromethyl)phenyl]cyclobutyl}(pyridin-2-yl)methanol] | – | – | 0.501 to 1 | 19 | 7.4
9 | OC(c1ccccn1)C1(c2cccc(OC(F)(F)F)c2)CCCO1 (stereo not drawn) [Example 93, (syn)-pyridin-2-yl{2-[3-(trifluoromethoxy)phenyl]tetrahydrofuran-2-yl}-methanol] | – | – | 0.501 to 1 | 0.33 | 12
10 | OC(c1ccccn1)C1(C2=CCC(F)(F)CC2)CCC1 (stereo not drawn) [Example 260, [1-(4,4-difluorocyclohex-1-en-1-yl)cyclobutyl](pyridin-2-yl)methanol] | – | – | 5.1 to 20 | <0.01 | 12
11 | CC1(O)CC(c2cccc(C(F)(F)F)c2)(C(O)c2ccccn2)C1 [Example 244, trans-3-[(S)-hydroxy(pyridin-2-yl)methyl]-1-methyl-3-[3-(trifluoromethyl)-phenyl]cyclobutanol] | – | – | 1.1 to 5 | 77 | 80
12 | Cc1cc(C(F)(F)F)cc(C2([C@@H](O)c3ccccn3)CC(=O)C2)n1 [Example 291, 3-[(R)-hydroxy(pyridin-2-yl)methyl]-3-[6-methyl-4-(trifluoromethyl)pyridin-2-yl]cyclobutanone] | – | – | 5.1 to 20 | 53 | >85
13 | OC(c1ccccn1)C1(c2cccc(C(F)(F)F)c2)CC(F)(F)C1 (stereo not drawn) [Example 113, {3,3-difluoro-1-[3-(trifluoromethyl)phenyl]cyclobutyl}(pyridin-2-yl)-methanol] | – | – | 0.05 to 0.5 | 18 | 24
